Biological target: T1, bovine liver β-galactosidase
T1 construct: gene GLB1; commercial native enzyme from bovine liver (Sigma-Aldrich)
Test: PNP-β-Gal hydrolysis, absorbance at […] nm
Type: biochemical, Bos taurus
Details: 1 mM PNP-β-Gal, citrate-phosphate buffer pH 7.3, 37 °C, 0.12 mg/mL enzyme; read-out: Inh.

IC50: 294 ± 50 µM
Compound: CCOC(=O)c1c(-c2ccccc2)nc([C@@H]2O[C@H](CO)[C@@H](O)[C@H](O)[C@H]2O)[nH]c1=O [11h, Ethyl 2-(β-D-glucopyranosyl)-4-phenyl-6-oxo-1,6-dihydropyrimidine-5-carboxylate]
